In data set [1] the test system is Malassezia furfur (ATCC 14521). Description: Minimum Inhibitory Concentration (MIC) agar dilution test. The conditions noted are these: for MIC: M. furfur, mDixon agar, 30°, 4-5 days; for Retained Activity: dispersed particle form (in water) vs. dissolved in an effective solvent (DMSO). The class given is cell-based. The protocol: ^1The Minimum Inhibitory Concentration is indicative of anti-fungal efficacy. Generally, the lower the value of the composition, the better its anti-fungal efficacy, due to increased inherent ability of the anti-dandruff agent to inhibit the growth of microorganisms.
Malassezia furfur was grown in a flask containing mDixon medium (see E. Gueho, et al. Antoinie Leeuwenhoek (1996), no. 69, 337-55, which description is incorporated by reference herein). Dilutions of solubilized anti-microbial active were then added to test tubes containing molten mDixon agar. M. furfur inoculum was added to each tube of molten agar, the tube vortexed, and the contents poured into separate sterile petri dishes. […] The lowest tested dilution of anti-microbial active that yields no growth is defined as the Minimal Inhibitory Concentration (MIC).
Experimental Procedure • 1) Malassezia furfur was grown in a 125 ml Erlenmeyer flask containing 50 ml “mDIXON” medium at 200 rpm and 30° C. until turbid. • 2) Selected dilutions were prepared using an appropriate dilution series, of the anti-microbial active or combination in solvent, which allowed the sample active to be solubilized prior to addition to the final test agar. For each concentration of the ZPT samples, the solvent was “DMSO”; for other samples, the solvent was water or “DMSO” or other suitable solvent. • 3) 0.25 ml dilutions of anti-microbial active were added to test tubes containing 9.5 ml molten “mDIXON” agar (held at 45° C. in a water bath). • 4) 0.25 M. furfur inoculum (adjusted to 5×10^5 cfu/ml by direct count) was added to each test tube of molten agar. • 5) Each tube was vortexed, and the contents poured into separate petri dishes. • 6) After the agar solidified, the plates inverted and incubated at 30° for 4-5 days. • 7) The plates were then observed for visible M. furfur growth. Particle Size Determination Method
A general note: In agar dilution the substance is mixed into plates at graded concentrations.

The conditions of data set [2]: cited from earlier work.

Like-named read-outs stand apart in the source and are kept apart here.

Take `Cc1ccc(S(=O)(=O)C(I)I)cc1` [diiodomethyl-p-tolylsulfone, Diiodomethyl-p-tolylsulfone]: the MIC is 2.0 ppm in data set [1] (Dispersed in Water) and 2 µg/mL in data set [1] (Malassezia furfur, ATCC14521, Dissolved in DMSO, read-out: MIC). For the same compound, the “Retained Activity” value in data set [1] was “about 100%”; in data set [1] (listed as AMICAL 48), 100%; in data set [1] (listed as Diiodomethyl-p-tolylsulfone), 100%. Moreover, the water solubility result in data set [2] was “less than 5 ppm”.

The values above are taken from patent US20060171912A1, “Diiodomethyl-p-tolylsulfone as a particulate dispersion in a liquid solvent” (priority 2005, published 2006).
